Results: patent US9807999B2, “Formulations” (priority 2010, dated 2017)

What was measured:
[1] = Solubility of active ingredients in solvents of the invention (equilibrated 4 weeks, supernatant analysed by gas chromatography)
Procedure: The resultant sample was mixed with a Whirlimixer™ and was then stored at 25° C. […] This procedure was repeated until the sample had equilibrated for 4 weeks following the final addition of either active ingredient or solvent.

[2] = Solubility of pesticides in propylene glycol benzoate compared with commonly used solvents; details: comparison in words; 20° C.
[3] = solvent propylene glycol benzoate (compound 1), 25° C., equilibrated 4 weeks
[4] = solvent butylene glycol benzoate (compound 2), 25° C., equilibrated 4 weeks

SMILES	Solubility in propylene glycol benzoate at 25° C. [1, 3] [% w/w]	Solubility in butylene glycol benzoate at 25° C. [1, 4] [% w/w]	Solubility in propylene glycol benzoate relative to a series of commonly used solvents [2]	Solubility in butylene glycol benzoate at 25° C. ([1]; 4 weeks) [% w/w]	Solubility in propylene glycol benzoate at 25° C. ([1]; 4 weeks) [% w/w]
COCCOCc1nc(C(F)(F)F)ccc1C(=O)C1=C(O)C2CCC(C2)C1=O (centres unmarked) [4-Hydroxy-3-[2-(2-methoxyethoxymethyl)-6-trifluoromethylpyridine-3-carbonyl]-bicyclo[3.2.1]oct-3-en-2-one]	27.4				
CO/C=C(/C(=O)OC)c1ccccc1Oc1cc(Oc2ccccc2C#N)ncn1 [Azoxystrobin]	5.5	8.1	higher		
N#Cc1c(Cl)c(Cl)c(Cl)c(C#N)c1Cl [Chlorothalonil]	1.32		lower		
CC(C1CC1)C(O)(Cn1cncn1)c1ccc(Cl)cc1 (centres unmarked) [Cyproconazole]				6.9	4.5
CC(C)C1C2CCC1c1c(NC(=O)c3cn(C)nc3C(F)F)cccc12 (centres unmarked) [Isopyrazam]	12.7	12.4	higher		
